The results in this text go back to patent US20230150970A1, “AMINOPYRIMIDINE DERIVATIVES AND THEIR USE AS ARYL HYDROCARBON RECEPTOR MODULATORS” (DONG-A ST CO., LTD., priority 2020, published 2023).

This test deals with T1, AhR (Homo sapiens, UniProt P35869).
T1 sequence (P35869 11-848): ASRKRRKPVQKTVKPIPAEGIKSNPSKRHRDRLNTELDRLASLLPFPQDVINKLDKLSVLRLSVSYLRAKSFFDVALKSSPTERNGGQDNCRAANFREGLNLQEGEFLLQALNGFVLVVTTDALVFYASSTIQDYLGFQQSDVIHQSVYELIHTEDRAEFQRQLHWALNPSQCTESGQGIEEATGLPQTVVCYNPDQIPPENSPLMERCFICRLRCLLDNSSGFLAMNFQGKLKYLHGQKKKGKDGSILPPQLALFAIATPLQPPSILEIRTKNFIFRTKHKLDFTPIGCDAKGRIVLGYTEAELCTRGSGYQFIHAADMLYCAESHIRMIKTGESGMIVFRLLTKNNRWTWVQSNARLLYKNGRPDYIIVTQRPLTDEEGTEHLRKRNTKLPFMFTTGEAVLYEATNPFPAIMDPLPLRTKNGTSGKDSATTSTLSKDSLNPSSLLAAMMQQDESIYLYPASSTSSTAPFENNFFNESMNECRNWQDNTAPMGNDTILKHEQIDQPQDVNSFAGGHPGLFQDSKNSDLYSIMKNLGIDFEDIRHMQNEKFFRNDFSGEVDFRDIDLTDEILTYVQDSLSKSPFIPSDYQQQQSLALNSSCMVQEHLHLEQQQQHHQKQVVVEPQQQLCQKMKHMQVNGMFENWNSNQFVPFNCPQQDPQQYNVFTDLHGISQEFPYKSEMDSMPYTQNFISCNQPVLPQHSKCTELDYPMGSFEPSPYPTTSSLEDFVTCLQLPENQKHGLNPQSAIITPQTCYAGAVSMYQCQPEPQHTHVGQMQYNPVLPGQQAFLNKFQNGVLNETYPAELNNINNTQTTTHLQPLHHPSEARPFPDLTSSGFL
The test can be described thus: In Vitro Assay 1: XRE-luciferase reporter assay, antagonism in human cell line (HepG2). The note with it: Assay 1: AhR-Luc Human Antagonism (IC50, nM), values marked *: kynurenine 50 μM, 6 hours.

From the text: In Vitro XRE-Luciferase Reporter Assay (In Vitro Assay 1, 2, 3) AhR activation leads the induction of target gene expression such as CYP1A1 and CYPIB1 by AhR binding to AhR-responsive DNA elements also known as xenobiotics responsive elements (XREs). The assay for measuring AhR activity herein is the luciferase assay using cell lines transfected with luciferase reporter plasmid containing XREs at the upstream of the reporter gene. Cells transfected with XRE-luciferase reporter (XRE-Luc), plasmid drive luciferase activity reflecting activation and inhibition of AhR in the cells. […] Kynurenine (an endogenous AhR agonist), was used to stimulate cells to test antagonistic properties of the compounds. The half-maximal inhibitory concentration (IC50), or half-maximal effective concentration (EC50), value was calculated using nonlinear regression (four parameters), with Prism8.0 software (GraphPad).
In Vitro Assay 1: Antagonism in Human Cell Line
HepG2 (human hepatoma cell line) cell line with a XRE-luciferase reporter either transiently or stably (Invivogen) were plated in complete medium and incubated at 37° C. in a CO2 incubator. After 24 hours, cells were treated with kynurenine (50* or 200 μM) alone (negative control) or with test compounds for 6 hours. Luciferase activity was measured with a commercial kit such as the Promega Luciferase kit or Invivogen Luciferase kit. Relative luciferase activity (Firefly/Nano-Luc) was used to calculate IC50 values. […] (IC50 values are grouped as A, B, C and D, whereby A: IC50<0.01 μM; B: 0.01<IC50<0.1 μM; C: 0.1<IC50<1.0 μM; D: IC50>1.0 μM)

In general, IC50 refers to the concentration that inhibits the measured activity by half. Read a high IC50 as a need for much substance. As for `CCC1CCCN(c2cc(-c3ccc(Cl)cc3)nc(-c3cccnc3)n2)C1` (centres unmarked) [Example 53, 4-(4-chlorophenyl)-6-(3-ethylpiperidin-1-yl)-2-(pyridin-3-yl)pyrimidine], the IC50 is over 1000 nM. For the molecule `Clc1ccc(-c2cc(NC3CCNCC3)nc(-c3cccnc3)n2)cc1` [Example 54, 6-(4-chlorophenyl)-N-(piperidin-4-yl)-2-(pyridin-3-yl)pyrimidin-4-amine], the IC50 is over 1000 nM.

`Clc1ccc(-c2cc(NCC3CCCNC3)nc(-c3cccnc3)n2)cc1` (centres unmarked) [Example 55, 6-(4-chlorophenyl)-N-(piperidin-3-ylmethyl)-2-(pyridin-3-yl)pyrimidin-4-amine] came in with an IC50 of over 1000 nM. In turn, `Clc1ccc(-c2cc(NCC3CCNCC3)nc(-c3cccnc3)n2)cc1` [Example 56, 6-(4-chlorophenyl)-N-(piperidin-4-ylmethyl)-2-(pyridin-3-yl)pyrimidin-4-amine] showed an IC50 of 100 to 1000 nM. As for `CN1CCC(Nc2cc(-c3ccc(Cl)cc3)nc(-c3cccnc3)n2)CC1` [Example 57, 6-(4-chlorophenyl)-N-(1-methylpiperidin-4-yl)-2-(pyridin-3-yl)pyrimidin-4-amine], the figure is over 1000 nM; as for `Clc1ccc(-c2cc(NCCC3CCNCC3)nc(-c3cccnc3)n2)cc1` [Example 58, 6-(4-chlorophenyl)-N-(2-(piperidin-4-yl)ethyl)-2-(pyridin-3-yl)pyrimidin-4-amine], over 1000 nM; as for `NCC1CCCCN1c1cc(-c2ccc(Cl)cc2)nc(-c2cccnc2)n1` (centres unmarked) [Example 59, (1-(6-(4-chlorophenyl)-2-(pyridin-3-yl)pyrimidin-4-yl)piperidin-2-yl)methanamine], over 1000 nM. In the case of `N[C@@H]1CCCN(c2cc(-c3ccc(Cl)cc3)nc(-c3cccnc3)n2)C1` [Example 60, (R)-1-(6-(4-chlorophenyl)-2-(pyridin-3-yl)pyrimidin-4-yl)piperidin-3-amine] it was over 1000 nM. The molecule `N[C@H]1CCCN(c2cc(-c3ccc(Cl)cc3)nc(-c3cccnc3)n2)C1` [Example 61, (S)-1-(6-(4-chlorophenyl)-2-(pyridin-3-yl)pyrimidin-4-yl)piperidin-3-amine] gave an IC50 of over 1000 nM. In turn, `NCC1CCCN(c2cc(-c3ccc(Cl)cc3)nc(-c3cccnc3)n2)C1` (centres unmarked) [Example 62, (1-(6-(4-chlorophenyl)-2-(pyridin-3-yl)pyrimidin-4-yl)piperidin-3-yl)methanamine] registered an IC50 of over 1000 nM. As for `NC[C@@H]1CCCN(c2cc(-c3ccc(Cl)cc3)nc(-c3cccnc3)n2)C1` [Example 63, (S)-(1-(6-(4-chlorophenyl)-2-(pyridin-3-yl)pyrimidin-4-yl)piperidin-3-yl)methanamine], the IC50 was over 1000 nM. `NC1CCN(c2cc(-c3ccc(Cl)cc3)nc(-c3cccnc3)n2)CC1` [Example 64, 1-(6-(4-chlorophenyl)-2-(pyridin-3-yl)pyrimidin-4-yl)piperidin-4-amine] yielded an IC50 of 100 to 1000 nM. The molecule `NCC1CCN(c2cc(-c3ccc(Cl)cc3)nc(-c3cccnc3)n2)CC1` [Example 65, (1-(6-(4-chlorophenyl)-2-(pyridin-3-yl)pyrimidin-4-yl)piperidin-4-yl)methanamine] displayed an IC50 of 100 to 1000 nM. For the molecule `O[C@@H]1CCC[C@@H]1Nc1cc(-c2ccc(Cl)cc2)nc(-c2cccnc2)n1` [Example 66, (1R,2S)-2-((6-(4-chlorophenyl)-2-(pyridin-3-yl)pyrimidin-4-yl)amino)cyclopentan-1-ol], the IC50 was over 1000 nM. As to `O[C@H]1CCC[C@@H]1Nc1cc(-c2ccc(Cl)cc2)nc(-c2cccnc2)n1` [Example 67, (1S,2S)-2-((6-(4-chlorophenyl)-2-(pyridin-3-yl)pyrimidin-4-yl)amino)cyclopentan-1-ol], the IC50 is 100 to 1000 nM. As for `O[C@@H]1CCCC[C@H]1Nc1cc(-c2ccc(Cl)cc2)nc(-c2cccnc2)n1` [Example 69, (1R,2R)-2-((6-(4-chlorophenyl)-2-(pyridin-3-yl)pyrimidin-4-yl)amino)cyclohexan-1-ol], the figure is 100 to 1000 nM; as for `Clc1ccc(-c2cc(N3CCOCC3)nc(-c3cccnc3)n2)cc1` [Example 71, 4-(6-(4-chlorophenyl)-2-(pyridin-3-yl)pyrimidin-4-yl)morpholine], 10 to 100 nM. The molecule `Clc1ccc(-c2cc(NCC3CNCCO3)nc(-c3cccnc3)n2)cc1` (centres unmarked) [Example 72, 6-(4-chlorophenyl)-N-(morpholin-2-ylmethyl)-2-(pyridin-3-yl)pyrimidin-4-amine] had an IC50 of over 1000 nM.

Take `Clc1ccc(-c2cc(N3CCC(N4CCOCC4)C3)nc(-c3cccnc3)n2)cc1` (centres unmarked) [Example 73, 4-(1-(6-(4-chlorophenyl)-2-(pyridin-3-yl)pyrimidin-4-yl)pyrrolidin-3-yl)morpholine]: the IC50 was over 1000 nM. `Clc1ccc(-c2cc(N3CCSCC3)nc(-c3cccnc3)n2)cc1` [Example 74, 4-(6-(4-chlorophenyl)-2-(pyridin-3-yl)pyrimidin-4-yl)thiomorpholine] gave an IC50 of 100 to 1000 nM. As for `Clc1ccc(-c2cc(NCCCN3CCOCC3)nc(-c3cccnc3)n2)cc1` [Example 75, 6-(4-chlorophenyl)-N-(3-morpholinopropyl)-2-(pyridin-3-yl)pyrimidin-4-amine], the figure is over 1000 nM; as for `C[C@@H]1CNCCN1c1cc(-c2ccc(Cl)cc2)nc(-c2cccnc2)n1` [Example 76, (R)-4-(4-chlorophenyl)-6-(2-methylpiperazin-1-yl)-2-(pyridin-3-yl)pyrimidine], over 1000 nM. As for `C[C@@H]1CN(C(=O)c2ccccc2)CCN1c1cc(-c2ccc(Cl)cc2)nc(-c2cccnc2)n1` [Example 77, (R)-(4-(6-(4-chlorophenyl)-2-(pyridin-3-yl)pyrimidin-4-yl)-3-methylpiperazin-1-yl)(phenyl)methanone], the figure is over 1000 nM. `COC(=O)[C@H]1CN(c2cc(-c3ccc(Cl)cc3)nc(-c3cccnc3)n2)CCN1` [Example 78, methyl (R)-4-(6-(4-chlorophenyl)-2-(pyridin-3-yl)pyrimidin-4-yl)piperazine-2-carboxylate]: the IC50 is over 1000 nM. In turn, `Clc1ccc(-c2cc(N3CCN(c4cccc(Cl)c4Cl)CC3)nc(-c3cccnc3)n2)cc1` [Example 80, 4-(4-chlorophenyl)-6-(4-(2,3-dichlorophenyl)piperazin-1-yl)-2-(pyridin-3-yl)pyrimidine] gave an IC50 of over 1000 nM. As for `COc1ccc(OC)c(CN2CCN(c3cc(-c4ccc(Cl)cc4)nc(-c4cccnc4)n3)CC2)c1` [Example 81, 4-(4-chlorophenyl)-6-(4-(2,5-dimethoxybenzyl)piperazin-1-yl)-2-(pyridin-3-yl)pyrimidine], the figure is under 10 nM; as for `OCCN1CCN(c2cc(-c3ccc(Cl)cc3)nc(-c3cccnc3)n2)CC1` [Example 82, 2-(4-(6-(4-chlorophenyl)-2-(pyridin-3-yl)pyrimidin-4-yl)piperazin-1-yl)ethan-1-ol], under 10 nM.

Molecule `COc1ccccc1N1CCN(c2cc(-c3ccc(Cl)cc3)nc(-c3cccnc3)n2)CC1` [Example 83, 4-(4-chlorophenyl)-6-(4-(2-methoxyphenyl)piperazin-1-yl)-2-(pyridin-3-yl)pyrimidine] showed an IC50 of 10 to 100 nM. Take `CCOc1ccccc1N1CCN(c2cc(-c3ccc(Cl)cc3)nc(-c3cccnc3)n2)CC1` [Example 84, 4-(4-chlorophenyl)-6-(4-(2-ethoxyphenyl)piperazin-1-yl)-2-(pyridin-3-yl)pyrimidine]: the IC50 was over 1000 nM.

Molecule `Fc1ccccc1N1CCN(c2cc(-c3ccc(Cl)cc3)nc(-c3cccnc3)n2)CC1` [Example 85, 4-(4-chlorophenyl)-6-(4-(2-fluorophenyl)piperazin-1-yl)-2-(pyridin-3-yl)pyrimidine] had an IC50 of 100 to 1000 nM. On to `O=C(c1ccco1)N1CCN(c2cc(-c3ccc(Cl)cc3)nc(-c3cccnc3)n2)CC1` [Example 86, (4-(6-(4-chlorophenyl)-2-(pyridin-3-yl)pyrimidin-4-yl)piperazin-1-yl)(furan-2-yl)methanone], for which the IC50 lay in the range of 10 to 100 nM. As for `Clc1ccc(-c2cc(N3CCN(CCc4ccccc4)CC3)nc(-c3cccnc3)n2)cc1` [Example 87, 4-(4-chlorophenyl)-6-(4-phenethylpiperazin-1-yl)-2-(pyridin-3-yl)pyrimidine], the figure is 10 to 100 nM; as for `Clc1ccc(-c2cc(NCCN3CCNCC3)nc(-c3cccnc3)n2)cc1` [Example 88, 6-(4-chlorophenyl)-N-(2-(piperazin-1-yl)ethyl)-2-(pyridin-3-yl)pyrimidin-4-amine], over 1000 nM.

In turn, `Clc1ccc(-c2cc(N3CCN(c4ccccn4)CC3)nc(-c3cccnc3)n2)cc1` [Example 89, 4-(4-chlorophenyl)-6-(4-(pyridin-2-yl)piperazin-1-yl)-2-(pyridin-3-yl)pyrimidine] returned an IC50 of 10 to 100 nM.

Take `Clc1ccc(-c2cc(N3CCN(CCN4CCOCC4)CC3)nc(-c3cccnc3)n2)cc1` [Example 91, 4-(2-(4-(6-(4-chlorophenyl)-2-(pyridin-3-yl)pyrimidin-4-yl)piperazin-1-yl)ethyl)morpholine]: the IC50 was in the range of 10 to 100 nM.
